# Tested on: IL-12 induced STAT4 phosphorlyation mediated by TYK2/JAK2
# Assay: IL-12 Induced pSTAT4 in Human PBMC
# Type: cell-based
# Settings: 1.7 ng/mL IL-12 for 30 minutes
# In short: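 Thawed human PBMC pre-incubated with compound 1 hr at 37° C (0.1% DMSO final), then stimulated 30 minutes with IL-12 at 1.7 ng/mL final. pSTAT4 and total STAT4 measured in cell lysates with MSD reagents.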
Structure (SMILES),IC50 (0.5 h),IC50
"CNc1cc(-c2cnc3n(CC(C)(C)O)cccc2-3)nc2c(C(=O)NC3CC[C@@H]3OC)cnn12 (stereo in doubt) [Compound I-979, 5-(7-(2-hydroxy-2-methylpropyl)-7H-pyrrolo[2,3-b]pyridin-3-yl)-N-(2-methoxycyclobutyl)-7-(methylamino)pyrazolo[1,5-a]pyrimidine-3-carboxamide]",0.1 to 0.5 µM,–
CNc1cc(-c2cn([C@@H]3CC3(F)F)c3ncccc23)nc2c(C(=O)NC3CC[C@H]3O)cnn12 (stereo partly drawn) [Compound I-548],–,< 0.1 µM
CNc1cc(Nc2cccn(-c3ccccn3)c2=O)nc2c(C(=O)N[C@@H]3CCC3(F)F)cnn12 [Compound I-320],–,< 0.1 µM
CNc1cc(-c2cn([C@H]3COC[C@@H]3OC)c3ncccc23)nc2c(C(=O)N[C@@H]3CC[C@@H]3F)cnn12 [Compound I-530],–,< 0.1 µM
CNc1cc(Nc2cccn([C@@H]3CCC[C@@H]3O)c2=O)nc2c(C(=O)NC3CCC3(F)F)cnn12 (stereo partly drawn) [Compound I-303],–,< 0.1 µM
CNc1cc(Nc2cccn(C3CCOCC3)c2=O)nc2c(C(=O)N[C@@H]3CC[C@@H]3F)cnn12 [Compound I-193],–,< 0.1 µM
CNc1cc(-c2cn([C@H]3COC[C@H]3F)c3ncccc23)nc2c(C(=O)N[C@H]3CC[C@@H]3OC)cnn12 [Compound I-625],–,< 0.1 µM
CNc1cc(Nc2cccn([C@H]3CCCC[C@H]3O)c2=O)nc2c(C(=O)N[C@@H]3CC[C@H]3F)cnn12 [Compound I-214],–,< 0.1 µM
CNc1cc(Nc2cccn([C@@H]3CCOC[C@@H]3OC)c2=O)nc2c(C(=O)N[C@@H]3CC[C@H]3F)cnn12 [Compound I-217],–,< 0.1 µM
CNc1cc(Nc2cccn([C@@H]3CCC[C@H](C#N)C3)c2=O)nc2c(C(=O)N[C@H]3CCC3(F)F)cnn12 [Compound I-328],–,< 0.1 µM
CNc1cc(-c2cn([C@H]3COC[C@@H]3OC)c3ncccc23)nc2c(C(=O)NC3CC[C@@H]3OC)cnn12 (stereo partly drawn) [Compound I-633],–,< 0.1 µM
CNc1cc(-c2cn(CC(=O)N(C)C)c3ncccc23)nc2c(C(=O)N[C@H]3CC[C@@H]3OC)cnn12 [Compound I-921],–,< 0.1 µM
CNc1cc(-c2cn([C@H]3COC[C@@H]3OC)c3ncccc23)nc2c(C(=O)NC3CC[C@H]3F)cnn12 (stereo partly drawn) [Compound I-528],–,< 0.1 µM
CNc1cc(Nc2cccn([C@H]3CCC[C@@H](C#N)C3)c2=O)nc2c(C(=O)N[C@H]3CCC3(F)F)cnn12 [Compound I-331],–,< 0.1 µM
"CNc1cc(Nc2cccn([C@H]3C[C@H](F)C3)c2=O)nc2c(C(=O)N[C@H]3CC[C@H]3O)cnn12 [Compound I-16, 5-((1-((1r,3S)-3-Fluorocyclobutyl)-2-oxo-1,2-dihydropyridin-3-yl)amino)-N-((1S,2R)-2-hydroxycyclobutyl)-7-(methylamino)pyrazolo[1,5-a]pyrimidine-3-carboxamide]",–,< 0.1 µM
CNc1cc(Nc2cccn([C@@H]3CCC[C@@H]3O)c2=O)nc2c(C(=O)N[C@@H]3CCC3(F)F)cnn12 [Compound I-305],–,< 0.1 µM
CNc1cc(-c2cn([C@H]3COC[C@@H]3O)c3ncccc23)nc2c(C(=O)NC3CCC3(F)F)cnn12 (stereo partly drawn) [Compound I-695],–,< 0.1 µM
CNc1cc(-c2cn(C3COC3)c3ncccc23)nc2c(C(=O)N[C@H]3CC[C@@H]3O)cnn12 [Compound I-558],–,< 0.1 µM
CNc1cc(-c2cn(C3CCCC3)c3ncccc23)nc2c(C(=O)NC3CCC3(F)F)cnn12 (stereo not drawn) [Compound I-683],–,< 0.1 µM
CNc1cc(Nc2cccn([C@@H]3CCCOC3)c2=O)nc2c(C(=O)N[C@@H]3CC[C@H]3F)cnn12 [Compound I-196],–,< 0.1 µM
CNc1cc(-c2cn([C@@H]3COC[C@@H]3F)c3ncccc23)nc2c(C(=O)N[C@H]3CC[C@@H]3OC)cnn12 [Compound I-622],–,< 0.1 µM

Structure (SMILES),IC50 (0.5 h),IC50
"CNc1cc(Nc2cccn([C@H]3C[C@H](F)C3)c2=O)nc2c(C(=O)N[C@@H]3CC[C@H]3O)cnn12 [Compound I-108, 5-((1-((1r,3R)-3-Fluorocyclobutyl)-2-oxo-1,2-dihydropyridin-3-yl)amino)-N-((1R,2R)-2-hydroxycyclobutyl)-7-(methylamino)pyrazolo[1,5-a]pyrimidine-3-carboxamide]",–,0.1 to 0.5 µM
CNc1cc(Nc2cccn([C@H]3C[C@@H]3F)c2=O)nc2c(C(=O)N[C@H]3CC[C@@H]3F)cnn12 [Compound I-149],–,< 0.1 µM
CNc1cc(Nc2cccn(C3CCOCC3)c2=O)nc2c(C(=O)NC3CC[C@]3(C)O)cnn12 (stereo partly drawn) [Compound I-348],–,< 0.1 µM
CNc1cc(Nc2cccn([C@H]3[C@@H]4COC[C@@H]43)c2=O)nc2c(C(=O)N[C@@H]3CC[C@H]3F)cnn12 [Compound I-208],–,< 0.1 µM
CNc1cc(-c2cn([C@H]3COC[C@@H]3OC)c3ncccc23)nc2c(C(=O)N[C@H]3CC[C@H]3F)cnn12 [Compound I-529],–,< 0.1 µM
CNc1cc(-c2cn(C3CCOCC3)c3ncccc23)nc2c(C(=O)N[C@H]3CCC3(F)F)cnn12 [Compound I-699],–,< 0.1 µM
CNc1cc(Nc2cccn(-c3ncccc3F)c2=O)nc2c(C(=O)N[C@@H]3CC[C@@]3(C)OC)cnn12 [Compound I-415],–,< 0.1 µM
CNc1cc(Nc2cccn([C@H]3CCC[C@@H](C#N)C3)c2=O)nc2c(C(=O)NC3CCC3(F)F)cnn12 (stereo partly drawn) [Compound I-330],–,< 0.1 µM
CNc1cc(Nc2cccn([C@H]3CC[C@H]3O)c2=O)nc2c(C(=O)N[C@@H]3CC[C@H]3F)cnn12 [Compound I-169],–,< 0.1 µM
CNc1cc(Nc2cccn([C@H]3CCCOC3)c2=O)nc2c(C(=O)N[C@@H]3CCC3(F)F)cnn12 [Compound I-314],–,< 0.1 µM
CNc1cc(-c2cn([C@@H]3CCOC[C@@H]3OC)c3ncccc23)nc2c(C(=O)N[C@H]3CC[C@@H]3F)cnn12 [Compound I-798],–,< 0.1 µM
CNc1cc(-c2cnc3n([C@H]4CCOC4)cccc2-3)nc2c(C(=O)N[C@H]3CC[C@@H]3OC)cnn12 [Compound I-1002],–,< 0.1 µM
CNc1cc(-c2cn([C@H]3COC[C@@H]3O)c3ncccc23)nc2c(C(=O)NC3CC[C@@H]3OC)cnn12 (stereo partly drawn) [Compound I-630],–,0.1 to 0.5 µM
CNc1cc(Nc2cccn([C@H]3C[C@H](OC)C3)c2=O)nc2c(C(=O)N[C@@H]3CC[C@H]3F)cnn12 [Compound I-178],–,< 0.1 µM
CNc1cc(Nc2cccn([C@@H]3CCC[C@@H](OC)C3)c2=O)nc2c(C(=O)N[C@H]3CC[C@@H]3F)cnn12 [Compound I-228],–,< 0.1 µM
CNc1cc(Nc2cccn(C3CCN(CCF)CC3)c2=O)nc2c(C(=O)NC3CC[C@@H]3F)cnn12 (stereo partly drawn) [Compound I-236],–,< 0.1 µM
CNc1cc(Nc2cccn(C3CCOCC3)c2=O)nc2c(C(=O)NC3CC[C@H]3F)cnn12 (stereo partly drawn) [Compound I-191],–,< 0.1 µM
CNc1cc(-c2cn([C@@H]3COC[C@H]3OC)c3ccccc23)nc2c(C(=O)N[C@@H]3CC[C@H]3OC)cnn12 [Compound I-746],–,< 0.1 µM
CNc1cc(Nc2cccn(C3CCOCC3)c2=O)nc2c(C(=O)N[C@H]3CC[C@]3(C)OC)cnn12 [Compound I-407],–,< 0.1 µM
CNc1cc(-c2cn([C@H]3CCC[C@H]3F)c3ncccc23)nc2c(C(=O)N[C@H]3COC[C@H]3O)cnn12 [Compound I-722],–,< 0.1 µM
CNc1cc(-c2cn([C@@H]3CCN(C)C3)c3ncccc23)nc2c(C(=O)N[C@H]3CC[C@@H]3OC)cnn12 [Compound I-616],–,< 0.1 µM
